Assay results taken from patent US10172355B2, “Safened herbicidal compositions including 4-amino-3-chloro-5-fluoro-6-(4-chloro-2-fluoro-3-methoxyphenyl)pyridine-2-carboxylic acid or a derivative thereof for use in rice” (Dow AgroSciences LLC, priority 2012, dated 2019).
Where two headings read alike, the source gives them in different places.

Key:
[1] = test system: ORYSA=Orysa sativa, Rice; experiment: Postemergence foliar-applied herbicides and safeners in direct-seeded rice, visual injury; type: in vivo; details: foliar; for Visual Injury (%) - 21 DAA ORYSA-‘Clearfield 171’ Obs / Visual Injury (%) - 21 DAA ORYSA-‘Neptune’ Obs / Visual Injury (%) - 21 DAA ORYSA-‘Wells’ Obs: Tables 1,2,7,8; for Visual crop injury (%) at 140 g/ha / Visual crop injury (%) at 280 g/ha: Oryza sativa, 480 h, read-out: Visual Injury (%) - 20 DAA ORYSA-‘Clearfield 171’ Obs
From the text: (§1) Seeds or nutlets of the desired test plant species were planted in a soil matrix prepared by mixing a loam or sandy loam soil (e.g., 28.6 percent silt, 18.8 percent clay, and 52.6 percent sand, with a pH of about 5.8 and an organic matter content of about 1.8 percent) and calcareous grit in an 80 to 20 ratio. The soil matrix was contained in plastic pots with a surface area of 84.6 square centimeters (cm^2). When required to ensure good germination and healthy plants, a fungicide treatment and/or other chemical or physical treatment was applied. The plants were grown for 8-22 days in a greenhouse with an approximate 14 hr photoperiod which was maintained at about 29° C. during the day and 26° C. during the night. Nutrients (Peters Excel 15-5-15 5-Ca 2-Mg and iron chelate) were applied in the irrigation solution as needed and water was added on a regular basis. Supplemental lighting was provided with overhead metal halide 1000-Watt lamps as necessary. The plants were employed for testing when they reached the second or third true leaf stage.
(§2) Treatments consisted of the acid or esters of 4-amino-3-chloro-5-fluoro-6-(4-chloro-2-fluoro-3-methoxy-phenyl)pyridine-2-carboxylic acid (compound A) and various safener components alone and in combination. Forms of compound A were applied on an acid equivalent basis. Safener components were applied on an active ingredient or acid equivalent basis depending on the compound.
(§3) Treatment requirements were calculated based upon the rates being tested, the concentration of active ingredient or acid equivalent in the formulation, and a 12 mL application volume at a rate of 187 L/ha.
(§4) For treatments comprised of formulated compounds, measured amounts of compounds were placed individually in 25 mL glass vials and diluted in a volume of 1.25% (v/v) Agri-dex crop oil concentrated to obtain 12× stock solutions. […] Application solutions were prepared by adding an appropriate amount of each stock solution (e.g., 1 mL) and diluted to the appropriate final concentrations with the addition of 10 mL of an aqueous mixture of 1.25% (v/v) Agri-dex crop oil concentrate so that the final spray solutions contained 1.25% (v/v) Agri-dex crop oil concentrate.
(§5) For treatments comprised of technical compounds, weighed amounts were placed individually in 25 mL glass vials and dissolved in a volume of 97:3 v/v acetone/DMSO to obtain 12× stock solutions. […] Application solutions were prepared by adding an appropriate amount of each stock solution (e.g., 1 mL) and diluted to the appropriate final concentrations with the addition of 10 mL of an aqueous mixture of 1.5% (v/v) Agri-dex crop oil concentrate so that the final spray solutions contained 1.25% (v/v) Agri-dex crop oil concentrate. When technical materials were used, the concentrated stock solutions were added to the spray solutions so that the final acetone and DMSO concentrations of the application solutions were […], respectively.
(§6) For treatments comprised of formulated and technical compounds, weighed amounts of the technical materials were placed individually in 25 mL glass vials and dissolved in a volume of 97:3 v/v acetone/DMSO to obtain 12× stock solutions, and measured amounts of the formulated compounds were placed individually in 25 mL glass vials and diluted in a volume of 1.5% (v/v) Agri-dex crop oil concentrate or water to obtain 12× stock solutions. […] Application solutions were prepared by adding an appropriate amount of each stock solution (e.g., 1 mL) and diluted to the appropriate final concentrations with the addition of an appropriate amount of an aqueous mixture of 1.5% (v/v) Agri-dex crop oil concentrate so that the final spray solutions contained 1.25% (v/v) Agri-dex crop oil concentrate. When required, additional water and/or 97:3 v/v acetone/DMSO was added to individual application solutions so that the final acetone and DMSO concentrations of the application solutions being compared were 8.1% and 0.25%, respectively. […]

[2] = test system: ECHCG=Echinochloa crus-galli; experiment: Postemergence foliar-applied herbicides and safeners, visual injury of weed; type: in vivo; details: foliar; for pest or weed control at 280 g/ha / pest or weed control at 140 g/ha: Echinochloa crus-galli, 480 h, read-out: Visual Injury (%) - 20 DAA ECHCG Obs
From the text: as §1, §2, §3, §4, §5, §6

[3] = safener 140 g ai/ha alone, trial of Tables 3,4,6,10,12,14
[4] = safener 280 g ai/ha alone, trial of Tables 3,4,6,10,12,14
[5] = safener 140 g ai/ha alone, trial of Tables 5,9,11,13
[6] = safener 280 g ai/ha alone, trial of Tables 5,9,11,13

| SMILES | Visual crop injury (%) at 140 g/ha [1, 3] | Visual crop injury (%) at 280 g/ha [1, 4] | Visual Injury (%) - 20 DAA ECHCG Obs [2, 4] | Visual crop injury (%) at 140 g/ha [1, 5] | Visual crop injury (%) at 280 g/ha [1, 6] | pest or weed control at 140 g/ha [2, 5] | pest or weed control at 280 g/ha [2, 6] | Visual Injury (%) - 20 DAA ECHCG Obs [2, 3] | other results |
| --- | --- | --- | --- | --- | --- | --- | --- | --- | --- |
| CCCCCC(C)OC(=O)COc1ccc(Cl)c2cccnc12 (centres unmarked) [Cloquintocet-mexyl] | – | – | – | – | – | – | – | – | Visual Injury (%) - 21 DAA ORYSA-‘Clearfield 171’ Obs ([1]; safener 70 g ai/ha alone): 0%; Visual Injury (%) - 21 DAA ORYSA-‘Neptune’ Obs ([1]; safener 70 g ai/ha alone): 0%; Visual Injury (%) - 21 DAA ORYSA-‘Wells’ Obs ([1]; safener 70 g ai/ha alone): 0%; Visual Injury (%) - 21 DAA ORYSA-‘Clearfield 171’ Obs ([1]; safener 140 g ai/ha alone): 0%; Visual Injury (%) - 21 DAA ORYSA-‘Neptune’ Obs ([1]; safener 140 g ai/ha alone): 0%; Visual Injury (%) - 21 DAA ORYSA-‘Wells’ Obs ([1]; safener 140 g ai/ha alone): 0%; Visual Injury (%) - 21 DAA ORYSA-‘Neptune’ Obs ([1]; safener 280 g ai/ha alone): 0%; Visual Injury (%) - 21 DAA ORYSA-‘Wells’ Obs ([1]; safener 280 g ai/ha alone): 0% |
| Cc1ccc(NC(=O)NC(C)(C)c2ccccc2)cc1 [Daimuron, N-(4-methylphenyl)-N′-(1-methyl-1-phenylethyl)-urea] | – | – | – | – | – | – | – | – | Visual Injury (%) - 21 DAA ORYSA-‘Clearfield 171’ Obs ([1]; safener 70 g ai/ha alone): 0%; Visual Injury (%) - 21 DAA ORYSA-‘Neptune’ Obs ([1]; safener 70 g ai/ha alone): 0%; Visual Injury (%) - 21 DAA ORYSA-‘Wells’ Obs ([1]; safener 70 g ai/ha alone): 0%; Visual Injury (%) - 21 DAA ORYSA-‘Clearfield 171’ Obs ([1]; safener 140 g ai/ha alone): 0%; Visual Injury (%) - 21 DAA ORYSA-‘Neptune’ Obs ([1]; safener 140 g ai/ha alone): 0%; Visual Injury (%) - 21 DAA ORYSA-‘Wells’ Obs ([1]; safener 140 g ai/ha alone): 0%; Visual Injury (%) - 21 DAA ORYSA-‘Neptune’ Obs ([1]; safener 280 g ai/ha alone): 0%; Visual Injury (%) - 21 DAA ORYSA-‘Wells’ Obs ([1]; safener 280 g ai/ha alone): 0% |
| C=CCN(CC=C)C(=O)C(Cl)Cl [Dichlormid, N,N-diallyl-2,2-dichloroacetamide] | 0% | 0% | – | – | – | – | – | – | pest or weed control at 280 g/ha [2, 4]: 0% |
| CC1(C)CN2C(=O)CCC2(C)N(C(=O)C(Cl)Cl)C1 (centres unmarked) [Dicyclonon] | – | – | 0% | – | – | – | – | – | Visual Injury (%) - 20 DAA ORYSA-‘Clearfield 171’ Obs [1, 3]: 0%; Visual Injury (%) - 20 DAA ORYSA-‘Clearfield 171’ Obs [1, 5]: 0%; Visual Injury (%) - 20 DAA ORYSA-‘Clearfield 171’ Obs [1, 4]: 3%; Visual Injury (%) - 20 DAA ORYSA-‘Clearfield 171’ Obs [1, 6]: 0%; Visual Injury (%) - 20 DAA ECHCG Obs [2, 6]: 3% |
| CC(C)(SC(=O)N1CCCCC1)c1ccccc1 [Dimepiperate, S-(1-methyl-1-phenylethyl)1-piperidine-carbothioate, reference compound] | 7% | 3% | – | – | – | – | – | – | pest or weed control at 140 g/ha [2, 3]: 0%; pest or weed control at 280 g/ha [2, 4]: 0% |
| Clc1cc(Cl)nc(-c2ccccc2)n1 [Fenclorim, 4,6-dichloro-2-phenylpyrimidine, reference compound] | 0% | 0% | 0% | 0% | 0% | 0% | 0% | 0% | – |
| CC1(C)OC(c2ccco2)CN1C(=O)C(Cl)Cl (centres unmarked) [Furilazole, 3-(dichloroacetyl)-5-(2-furanyl)-2,2-dimethyl-oxazolidine, reference compound] | 7% | 18% | 0% | 0% | 0% | 0% | 0% | 0% | – |
| O=C1OC(=O)c2cccc3cccc1c23 [Naphthalic anhydride, 1H,3H-naphtho[1,8-cd]pyran-1,3-dione, reference compound] | 0% | 0% | 0% | 0% | 3% | 0% | 0% | 0% | – |
